Like-named read-outs stand apart in the source and are kept apart here.
Experiments:
[1] = system: mammalian calcium channel; assay: Mammalian calcium channel assay (Fluo-4); type: cell-based, human; conditions: HEK 293T, carbachol treatment alone
Description: Many laboratory bacterial efflux inhibitor tool compounds cannot be used in the clinical setting because they limit mammalian ion channel activity. […] Thus, we measured the effects of ABEPI1 and ABEPI2 on mammalian calcium channel functions using Fluo-4 Direct Calcium Channel Assay kits (Life Technologies, Carlsbad, Calif.), in which the dye Fluo-4 was used to measure changes in mammalian cytoplasmic Ca^2+ levels in response to the calcium channel stimulator, carbachol, in the absence and presence of test compound. […] Next, 2× Fluo-4 dye supplemented with Probenecid (5 mM) was added to each well and allowed to equilibrate for 1 hr at 37° C. To determine whether ABEPI1 or ABEPI2 affect Ca^2+ channel activity, Fluo-4 fluorescence measures (excitation 495nm; emission 516nm) were then taken every second for 15 sec.

[2] = system: A. baumannii strain 98-37-09; assay: Potentiation of ciprofloxacin toward serum grown A. baumannii; type: cell-based, Acinetobacter baumannii; conditions: for Potentiate Ciprofloxacin A. baumannii (value in parentheses: log reduction of viability): 1×MEC with ciprofloxacin versus ciprofloxacin alone, plating; for Potentiate Ciprofloxacin A. baumannii: 100% human serum, 0.125 μg ml^−1 ciprofloxacin, 1× or 2× MEC, 48 hour, growth inhibition
Description: As a means to further prioritize non-toxic compounds of interest based on their therapeutic promise, it was considered that broad spectrum antimicrobial efflux pump inhibitors may be more clinically valuable than narrow-spectrum agents that only potentiate the activity of a limited number of antibiotics or that display activity toward a single bacterial species. […] To do so, 1×10^5 A. baumannii strain 98-37-09 were inoculated into individual wells of microtiter plates containing 100% human serum supplemented with 0.125 μg ml^−1 ciprofloxacin and 0, 1×, or 2× the compound's MEC, as defined by the lowest concentration needed to potentiated minocycline's antimicrobial effects (above). Plates were incubated for 48 hour at which point each compound's ability to potentiate ciprofloxacin was measured, as growth inhibition.

[3] = system: A. baumannii strain 98-37-09; assay: Cellular accumulation of minocycline (HPLC, triple-quadrupole MS); type: cell-based, Acinetobacter baumannii; conditions: human serum with 0.5 μg mL^−1 minocycline plus test compound (0.5×MEC, 1×MEC), 48 hours
human HepG2 cells = assay: MTT cell viability (cytotoxicity) assay
Method: To distinguish putatively non-toxic from human cytotoxic compounds, conventional 3-(4,5-dimethylthiazol-2yl)-2,5-diphenyltetrazolium bromide (MTT) cell viability assays (American Type Culture Collection, Manassas, Va.) were performed for each compound of interest at 1× and 4× their MEC. Briefly, human HepG2 cells were grown to approximately 1×10^6 cells per well in Dulbecco's Modified Eagle Media supplemented with 10% fetal bovine serum (Invitrogen, Carlsbad, Calif.) then treated with 1× or 4× the MEC of the indicated […] Cell viability was measured following the addition of the tetrazolium salt (MTT) as per the manufacturer's recommendations; cells challenged with 50 ug ml^−1 Mitomycin C (Sigma Aldrich) and mock-treated cells served as positive and negative controls, respectively.

[4] = system: A. baumannii strain 98-37-09; assay: Ethidium bromide efflux assay; type: cell-based, Acinetobacter baumannii; conditions: for ethidium bromide fluorescent signal in comparison to mock treated cells: 10 μg ml^−1 ethidium bromide, 90 min; for cellular ethidium fluorescence compared with PAβN: time course after treatment
Method: To distinguish whether the antimicrobial potentiation of ABEPI1 and ABEPI2 correlates with the inhibition of A. baumannii's efflux properties, conventional ethidium bromide efflux assays were performed in the presence and absence of each compound. The assay is predicated upon the fluorescent properties of ethidium bromide during intercalation into cellular nucleic acids, whereby efflux active cells display limited intracellular ethidium bromide accumulation and, consequently, low fluorescence. Conversely, efflux inhibition leads to increased cellular ethidium bromide levels and correspondingly high fluorescence relative to efflux proficient cells. Bacterial ethidium bromide efflux activity assays were used to measure the efflux inhibitory properties of compounds of interest. For assays, an overnight culture of A. baumannii strain 98-37-09 was diluted (1:100) into 100% human serum or fresh LB and grown to mid-exponential phase. Cell pellets were collected via centrifugation 900×g for 20 minutes, washed 3× with 20 mM sodium phosphate buffer and resuspended to an OD600nm=0.2 in sodium phosphate buffer. Approximately 1×10^6 CFU were loaded into individual wells of 96-well white-bottom plates, mixed with 10 μg ml^−1 ethidium bromide, and ethidium fluorescence (excitation 530nm; emission 600nm) was measured every 5 min for 90 min on a Spectramax5 fluorimeter (Molecular Devices, Sunnyvale, Calif.). To determine if the putative efflux pump inhibitors affected ethidium bromide efflux, cells were treated with the indicated amount of compound of interest or the efflux pump inhibitor, PaβN, two minutes after fluorescence monitoring began.

P. aeruginosa PA01 = assay: Potentiation of ciprofloxacin toward serum grown P. aeruginosa; type: cell-based, Pseudomonas aeruginosa; conditions: PA01 in 100% human serum, 1×MEC, ciprofloxacin 0 to 2 μg ml^−1
Method: To do so, PA01 was inoculated into individuals wells of a microtiter plate containing 100% human serum supplemented with 1×MEC of test compound and increasing concentrations of ciprofloxacin (0 to 2 μg ml^−1) and cell viability was measured.

[5] = system: A. baumannii strain 98-37-09; assay: MEC determination: potentiation of minocycline toward serum grown A. baumannii; type: cell-based, Acinetobacter baumannii; conditions: for Log-reduction Colony Forming Units (ml^−1): 1×MEC of compound plus minocycline in serum, versus minocycline alone, plating; for MEC: lowest concentration inhibiting growth in 100% human serum with 0.5 μg ml^−1 minocycline, 48 hr
A. baumannii = assay: Antibiotic susceptibility assay in LB medium or 100% human serum; type: cell-based, Acinetobacter baumannii; conditions: serum grown, efflux pump inhibitor present
Method: The antibiotic susceptibility of A. baumannii and Pseudomonas aeruginosa grown in either LB medium or 100% human serum was measured according to the method described below. Briefly, the indicated bacterial species/strain was grown overnight in LB medium, diluted into fresh medium (1:100 dilution) and grown to mid-exponential phase (OD600nm=0.4 to 0.5) at 37° C. with aeration. […] To quantify the antimicrobial effects of each antibiotic toward bacteria grown in LB or serum, well constitutes were serially diluted in PBS and plated on LB agar to enumerate the CFU mL^−1.

Row | Molecule | increase in cytoplasmic Ca^2+ levels [1] | Potentiate Ciprofloxacin A. baumannii (value in parentheses: log reduction of viability) [2] | Potentiate Ciprofloxacin A. baumannii [2] | Minocylcine Per Cell (femtomoles cell^−1) [3] | % Viability (human HepG2 cells; human, 48 h, 4 ×MEC) | ethidium bromide fluorescent signal in comparison to mock treated cells [4] | cellular ethidium fluorescence compared with PAβN [4] | Potentiate Ciprofloxacin P. aeruginosa (P. aeruginosa PA01) | Potentiate Ciprofloxacin P. aeruginosa (P. aeruginosa PA01; listed as ABEPI1) | Log-reduction Colony Forming Units (ml^−1) [5] | MEC [5] | % Viability (human HepG2 cells) | restoration of tetracycline susceptibility in serum (A. baumannii)
1 | C[N+](C)(C)CCOC(N)=O [Carbachol, carbamylocholine chloride] | approximately 2.3 fold |  |  |  |  |  |  |  |  |  |  |  | 
2 | NS(=O)(=O)c1ccc(/N=C/c2ccc(Cl)cc2)cc1 [ST009675] |  | (2.28) log | Yes | 5.88E−04 femtomoles cell^−1 | 96.6% | significantly increased signal | levels exceeding that of PABN within the first 20 min of treatment | Yes | potentiated the activity of ciprofloxacin | 6.73 log | 2 µg/mL |  | 
3 | COC(=O)c1ccccc1NC(=O)CN1C(=O)c2ccccc2S1(=O)=O [ST058165] |  | (1.53) log | Yes | 1.11E−04 femtomoles cell^−1 |  |  |  | No |  | 6.27 log | 32 µg/mL | 76.9% | 
4 | CC(C)(C)NC(=O)CSc1nnnn1C(C)(C)C [ST060273] |  | (4.36) log | Yes | 6.84E−06 femtomoles cell^−1 | 90.1% | significantly increased signal | essentially identical to those of PAβN until approximately 35 min post-treatment | Yes |  | 6.53 log | 32 µg/mL |  | 
5 | phenylalanine arginine beta naphthylamide [PAβN, reference compound] |  |  |  |  |  | significantly increased cellular ethidium bromide accumulation |  |  |  |  |  |  | partially restored
